What was measured:
[1] = Cardiovascular function study in awake telemeterized animals; conditions: single doses through 30 mg/kg
[2] = system: relapsed/refractory CLL; assay: Clinical study of Formula (XVIII) in relapsed/refractory CLL/SLL
[3] = system: regulatory T cell (Treg) development; assay: Regulatory T cell (Treg) development; type: cell-based
[4] = system: pancreatic cancer; assay: KPC pancreatic cancer model (spontaneously appearing tumors); type: in vivo, KPC mice; conditions: 15 mg/kg BID oral
Description: The KPC mouse model recapitulates many of the molecular, histopathologic, and clinical features of human disease (Westphalen and Olive, Cancer J. 2012, 18, 502-510). Combination therapy with gemcitabine was also evaluated in this model. Mice were enrolled after identification of spontaneously appearing tumors in the pancreas that were ≧100 mm^3 (as assessed by high-resolution ultrasonography).

[5] = system: relapsed/refractory CLL; conditions: human, in vivo
[6] = system: NK cells; assay: Antibody-stimulated NK cell degranulation (CD107a), flow cytometry; type: cell-based, human; conditions: DHL-4 target cells

CC#CC(=O)N1CCC[C@H]1c1nc(-c2ccc(C(=O)Nc3ccccn3)cc2)c2c(N)nccn12 [Formula (XVIII), (S)-4-(8-amino-3-(1-(but-2-ynoyl)pyrrolidin-2-yl)imidazo[1,5-a]pyrazin-1-yl)-N-(pyridin-2-yl)benzamide]
body temperature, cardiovascular, or ECG (including QT interval) parameters [1]: no meaningful changes | PD, % ([2]; 100 mg BID (N = 3)): (0) % | PR, % ([2]; 100 mg BID (N = 3)): (100) % | PD, % ([2]; 100 mg QD (N = 8)): (0) % | PR, % ([2]; 100 mg QD (N = 8)): (88) % | PD, % ([2]; 175 mg QD (N = 8)): (0) % | PR + L, % ([2]; 175 mg QD (N = 8)): (37) % | PR, % ([2]; 175 mg QD (N = 8)): (63) % | PD, % ([2]; 250 mg QD (N = 7)): (0) % | PR + L, % ([2]; 250 mg QD (N = 7)): (29) % | PR, % ([2]; 250 mg QD (N = 7)): (71) % | PD, % ([2]; 400 mg QD (N = 5)): (0) % | PR + L, % ([2]; 400 mg QD (N = 5)): (40) % | PR, % ([2]; 400 mg QD (N = 5)): (40) % | PD, % ([2]; All Cohorts (N = 31)): (0) % | PR + L, % ([2]; All Cohorts (N = 31)): (23) % | PR, % ([2]; All Cohorts (N = 31)): (71) % | time of treatment to reach the same median % change in SPD ([2]; CLL patients): 7 months | Headache, treatment-related adverse event ([2]; Grade 1/2, All (N = 44)): 7 (16) n (%) | Diarrhea, treatment-related adverse event ([2]; Grade 1, All (N = 44)): 4 (9) n (%) | Increased tendency to bruise, treatment-related adverse event ([2]; Grade 1, All (N = 44)): 6 (14) n (%) | Petechiae, treatment-related adverse event ([2]; Grade 1, All (N = 44)): 3 (7) n (%) | dose-limiting toxicities (DLTs) ([2]; human, in vivo): No DLTs were observed | grade of adverse events ([2]; human, in vivo): only grade 1 AEs were observed | lymphocytosis ([2]; human, in vivo): A lack of lymphocytosis was observed | plasma CXCL12 and CCL2 levels ([2]; human, in vivo): significant decrease | treatment-related serious adverse events (SAEs) ([2]; human, in vivo): No treatment-related serious adverse events (SAEs) were observed | progression in patients with the 17p deletion ([2]; to date): no 17p patients have progressed | effect on Treg development [3]: no effect on regulatory T cell (Treg) development | CD8 cells in tumor tissues [4]: significant increase | immunosuppressive TAMs, MDSCs and Tregs in tumor tissues [4]: significantly reduced | survival at day 14 [4]: 6/6 | maximum tolerated dose (MTD) [5]: not reached | inhibition of rituximab-stimulated NK cell degranulation [6]: < 2%

Reference: patent publication US20170239351A1, “Therapeutic Combinations of a BTK Inhibitor, a PI3K Inhibitor, a JAK-2 Inhibitor, a PD-1 Inhibitor, and/or a PD-L1 Inhibitor” (Acerta Pharma B.V., priority 2014, published 2017)
